The test system of this assay is 439559-082-T-J2-PDC spheroid viability. As to the kind of experiment: Anticancer human tumor 439559-082-T-J2-PDC patient-derived colon adenocarcinoma cell line growth inhibition [POLQ]. The note with it: spheroids with HUVEC and MSC; for viability, T/C: stronger effect = lower value. Here is the method: Multicellular complex tumor spheroid response to Polymerase (POL) inhibitors (novobiocin, ART-558, RP6685) in combination with a variety of drugs and investigational agents in selected tumor cell lines
The POL inhibitors (novobiocin, ART-558, and RP6685) were evaluated both individually and in combination with standard of care and investigational anticancer small molecules within a complex spheroid model of solid tumors. . Complex spheroids include a stromal component modeled by human endothelial cells (HUVEC) and fibroblasts modeled by human mesenchymal stem cells (MSCs). The concentration ranges selected for each drug and investigational agent were based upon clinically achievable concentrations if the clinical Cmax of the agent was known.
Compounds. The drugs and investigational agents: novobiocin (NSC847541), ART-558 (NSC835418), RP-6685 (NSC848927), peposertib (NSC802822), ceralasertib (NSC780249), elimusertib (NSC800525), camonsertib (NSC841442), AZD-1390 (NSC803789), olaparib (NSC753686), talazoparib (NSC767125), rucaparib (NSC756644), sotorasib (NSC818433), MRTX-1133 (NSC836407), SN-38 (NSC673596), topotecan (NSC609699), epotoside (NSC141540), doxorubicin (NSC123127), gemcitabine (NSC613327), 5-fluorouracil (NSC19893), paclitaxel (NSC125973), vemurafenib (NSC761431), MSA-2 (NSC828583), SN-011 (NSC837082), adavosertib (NSC754352), prexasertib (NSC758257), carboplatin (NSC241240) and oxaliplatin (NSC266046), were obtained from the National Cancer Institute (NCI) Developmental Therapeutics Program Chemical Repository (21). The FDA-approved anticancer drug set is available from the Developmental Therapeutics Program at https://dtp.cancer.gov/organization/dscb/obtaining/. […] The stock solutions were prepared in dimethyl sulfoxide (DMSO, Sigma-Aldrich, St. Louis, MO, cat. D2650), except for the platinum compounds which were prepared in saline (Quality Biological, Gaithersburg, MD, cat. 114-055-101), at 800-fold the tested concentration and stored at -70 degrees C prior to their use. All drugs and investigational agents were tested over a range starting from a high concentration at or near the clinical Cmax and decreasing in half-log increments. If the clinical Cmax for an agent had not been determined, the highest concentration tested was 10 microM, except for SN-38, which was tested at a high concentration of 1 microM.
Cell Culture. All cells were maintained in an incubator at 37 degrees C and 5% CO2 with 95% humidity. The PDC lines were cultured according to standard operating procedures established by the NCI PDMR (https://pdmr.cancer.gov). Table 3 of the manuscript, lists the cell lines along with the number of the three cell types plated to form the mct-spheroids and media for tumor cell growth. After thawing, all PDC lines, except 997537-175-T-J1-PDC and 415267-285-R-J2-PDC, were cultured in Matrigel-coated flasks prepared with a working solution of 1X Ham's F-12 nutrient mix, without supplementation (Thermo Fisher Scientific, cat. 11765054), 100 U/mL penicillin-streptomycin (Thermo Fisher Scientific, cat. 15140122), and 2.5% Matrigel (Corning Inc., Corning, NY, cat. 354248) for the first three passages. The two PDC lines 997537-175-T-J1-PDC and 415267-285-R-J2-PDC were cultured on uncoated flasks. The 857933-349-R-J2-PDC line was cultured in 6C/Colon 1B media containing advanced DMEM/F-12 (Thermo Fisher Scientific, cat. 12634028), 10 mM HEPES (Thermo Fisher Scientific, cat. 15630080), 1X GlutaMAX supplement (Thermo Fisher Scientific, cat. 35050061), 0.1 mg/mL primocin (InvivoGen, San Diego, CA, cat. ant-pm-2), 10% defined fetal bovine serum, heat inactivated (HyClone Laboratories Inc., Logan, UT, cat. SH30070.03HI), 50% L-WRN conditioned media (ATCC, cat. CRL-3276), 1.25 mM N-Acetyl-L-cysteine (Sigma-Aldrich, cat. A9165), 10 mM nicotinamide (Sigma-Aldrich, cat. N0636), 1X B-27 supplement (Thermo Fisher Scientific, cat. 17504044), 1X N-2 supplement (Thermo Fisher Scientific, cat. […]

Setting [1] is: compound alone, run of 12/05/2023.

Molecules are shown by their SMILES. “And” between values parts separate entries of the source, which are not always exact repeats. Equal values may be shown once.
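Further: spheroids exposed to compounds for seven days before readout.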

As for `COc1cc(C2c3cc4c(cc3C(OC3OC5COC(C)OC5C(O)C3O)C3COC(=O)C23)OCO4)cc(OC)c1O` (configuration not stated), the viability, T/C (commonly the ratio of treated to control) (compound 0.0316 µM) was 92.4% and 99.3% and 94.1%; the viability, T/C (compound 0.1 µM) was 95.6% and 95.3% and 97.8%; the viability, T/C (compound 0.316 µM) was 92.7% and 82% and 98.2%; the viability, T/C (compound 1 µM) is 90.5% and 88.4% and 95.4%; the viability, T/C (compound 3.16 µM) is 82.1% and 81.8% and 89.5%; the viability, T/C (compound 10 µM) was 73.7% and 72.7% and 70.3%. Besides, the IC50 (in general, the concentration that inhibits the measured activity by half) (curve of compound) is more than 10000 nM.

For the compound `COc1cc2cc(C(=O)CCC(=O)O)sc2cc1OC`, the viability, T/C is, setting by setting: (compound 0.0316 µM) 109% and 97.5% and 94.4%; (compound 0.1 µM) 93.8% and 82% and 103%; (compound 0.316 µM) 89.1% and 98.4% and 98.9%; (compound 1 µM) 95.2% and 100% and 99.7%; (compound 3.16 µM) 95.2% and 91.9% and 97%; (compound 10 µM) 87.7% and 100% (2×). The IC50 (curve of compound) was more than 10000 nM.

Take `COc1ccc([C@@H](O)c2cc(-c3ncnc4cc(N5CCOCC5)ccc34)c(F)cc2Cl)nn1`: the viability, T/C by setting is: (compound 0.0316 µM) 94.6% and 84.4% and 97.3%; (compound 0.1 µM) 98.2% and 88.9% and 93%; (compound 0.316 µM) 93.3% and 85.8% and 90.6%; (compound 1 µM) 103% and 90.1% and 94.2%; (compound 3.16 µM) 89.3% and 96.5% and 85.9%; (compound 10 µM) 82.2% (2×) and 75.2%. For the same compound, for the setting “curve of compound”, the IC50 is more than 10000 nM.

For `COc1cccc(OCCCN)c1-c1cc(Nc2cnc(C#N)cn2)n[nH]1`, the viability, T/C by setting is: (compound 0.00316 µM) 99.5% and 95.1% and 102%; (compound 0.01 µM) 88.5% and 89.2% and 81.1%; (compound 0.0316 µM) 73.2% and 77.3% and 77.8%; (compound 0.1 µM) 55.3% and 76.4% and 78.8%; (compound 0.316 µM) 30.3% and 45.7% and 50.2%; (compound 1 µM) 18.1% and 20.9% and 23%. Also, the IC50 (curve of compound) is 118 nM and 296 nM and 345 nM.

As to `COc1cccc2c1C(=O)c1c(O)c3c(c(O)c1C2=O)CC(O)(C(=O)CO)CC3OC1CC(N)C(O)C(C)O1` (configuration not stated), the viability, T/C is, setting by setting: (compound 0.0316 µM) 94.9% and 90.3% and 99.1%; (compound 0.1 µM) 86.6% and 79.9% and 96.6%; (compound 0.316 µM) 79.8% and 66.8% and 88%; (compound 1 µM) 72.6% and 63.7% and 70.9%; (compound 3.16 µM) 65% and 58.3% and 60.4%; (compound 10 µM) 52.5% and 69.4% and 49.1%. Also, the IC50 (curve of compound) is > 10000 nM and 9810 nM.

Take `Cc1cccc(N(C)C(=O)C2C(O)CCN2c2nc(C)cc(C(F)(F)F)c2C#N)c1` (configuration not stated): the viability, T/C (compound 0.0316 µM) is 98.9% [middle of 12 runs]; the viability, T/C (compound 0.1 µM) was 95.7% [middle of 12 runs]; the viability, T/C (compound 0.316 µM) was 97.4% [middle of 12 runs]; the viability, T/C (compound 1 µM) is 98.2% [middle of 12 runs]; the viability, T/C (compound 3.16 µM) is 97% [middle of 12 runs]; the viability, T/C (compound 10 µM) is 101% [middle of 12 runs]. Besides, the IC50 runs as follows: (compound alone, run of 11/27/2023) more than 10000 nM; under setting [1], more than 10000 nM.

On to `Cn1ncnc1[C@H]1c2n[nH]c(=O)c3cc(F)cc(c23)N[C@@H]1c1ccc(F)cc1`, for which the viability, T/C is 101% and 102% and 94.5% (compound 0.000316 µM); 100% (2×) and 86.2% (compound 0.001 µM); 94.4% and 97.9% and 97.8% (compound 0.00316 µM); 96.7% and 93.2% and 100% (compound 0.01 µM); 97.2% and 98.5% and 107% (compound 0.0316 µM); 97.3% and 95.7% and 88.3% (compound 0.1 µM). For the same compound, the IC50 (curve of compound) was more than 100 nM.

With `Nc1ccc(C#CCN(C(=O)Cc2ncc(C(F)(F)F)cc2C(F)(F)F)c2ccc(F)cc2)nn1`, the viability, T/C is 96.1% [middle of 13 runs] (compound 0.0316 µM); 97.8% [middle of 13 runs] (compound 0.1 µM); 96% [middle of 13 runs] (compound 0.316 µM); 100% [middle of 13 runs] (compound 1 µM); 99.5% [middle of 13 runs] (compound 3.16 µM). Also, under setting [1], the IC50 is more than 10000 nM.

As for `Nc1ccn(C2OC(CO)C(O)C2(F)F)c(=O)n1` (configuration not stated), the viability, T/C (compound 0.0316 µM) was 84.5% and 77.1% and 81%; the viability, T/C (compound 0.1 µM) is 68.2% and 74.4% and 72%; the viability, T/C (compound 0.316 µM) was 58.2% and 59% and 56.6%; the viability, T/C (compound 1 µM) is 49.8% and 43.5% and 39.9%; the viability, T/C (compound 3.16 µM) was 36.5% and 35.1% and 30.8%; the viability, T/C (compound 10 µM) was 31.1% and 26.7% and 27.3%. For the same compound, for the setting “curve of compound”, the IC50 was 767 nM and 656 nM and 496 nM.

As to `O=C(c1cc(Cc2n[nH]c(=O)c3ccccc23)ccc1F)N1CCN(C(=O)C2CC2)CC1`, the viability, T/C (compound 0.0316 µM) is 88.1% and 67.6% and 87.6%. For the same compound, the IC50 (curve of compound) is more than 10000 nM.

As for `O=c1[nH]cc(F)c(=O)[nH]1`, the viability, T/C reads like this: (compound 0.0316 µM) 94.6% and 117% and 96.9%; (compound 0.1 µM) 95% and 114% and 94.2%; (compound 0.316 µM) 83.6% and 86.3% and 81%; (compound 1 µM) 76.2% and 90.7% and 73%; (compound 3.16 µM) 71.1% and 87% and 72.8%; (compound 10 µM) 68.4% and 78.9% and 71.5%. Further, the IC50 (curve of compound) is more than 10000 nM.

(Values after PubChem BioAssay AID1963841 (Molecular Pharmacology Branch, DTP, NCI, 2024).)
